Patent US20250344734A1, “UNSATURATED FATTY ACIDS AND THEIR USE TO MODIFY TASTE” (Firmenich Incorporated, priority 2022, published 2025)

Legend:
Type in all cases: cell-based
T2R01 (TAS2R01) = molecular target: T1, T2R01 (TAS2R01) (Homo sapiens, UniProt Q9NYW7); assay: FLIPR calcium assay, block of bitter agonist response, T2R01; settings: unsaturated fatty acid concentration of 200 µM, cells stimulated with known bitter agonist, read-out: percentage block of cellular response over baseline, 01
T1 construct: expressed in transfected cells; host or cells: cells expressing a promiscuous G protein (e.g., G16g44)
T1 sequence (Q9NYW7 1-299): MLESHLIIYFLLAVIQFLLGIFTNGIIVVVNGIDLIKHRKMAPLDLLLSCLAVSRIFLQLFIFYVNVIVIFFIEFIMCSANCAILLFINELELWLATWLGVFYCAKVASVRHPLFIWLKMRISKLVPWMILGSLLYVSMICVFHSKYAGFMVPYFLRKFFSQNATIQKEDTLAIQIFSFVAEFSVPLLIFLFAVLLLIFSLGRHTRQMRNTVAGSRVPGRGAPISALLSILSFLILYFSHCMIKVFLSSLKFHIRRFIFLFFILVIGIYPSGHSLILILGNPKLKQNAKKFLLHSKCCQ
Protocol: (§1) Cells expressing a promiscuous […] (e.g., G16g44) were transfected with vectors encoding 18 functional bitter receptor cDNAs, with one receptor per transfection. The cells were transfected directly in 384-well format high-density plates and incubated for 28 hours. Later, cells were loaded with the Ca-specific dye Fluo4-AM. After an incubation of 60 minutes, excess dye is washed off, and cells are stimulated with a known bitter agonist for each receptor and various unsaturated fatty acids. Changes in intracellular fluorescence are recorded using a FLIPR instrument. Bitter antagonists and corresponding receptors are identified based on percentage inhibition of agonist's activity on a given receptor.
(§2) The above protocol was carried out using 16 different unsaturated fatty acids. A particular T2R receptor was identified as being antagonized by a particular unsaturated fatty acid if it triggered a >25% block of agonist's cellular response at 200 μM concentration of unsaturated fatty acid. […] Table 2 indicates the sixteen (16) compounds tested by their compound number from Table 1 above. The 18 bitter taste receptors screened are the human bitter taste receptors we named. T2R01 (TAS2R01), T2R03 (TAS2R03), T2R04 (TAS2R04), T2R07 (TAS2R07), T2R08 (TAS2R08), T2R09 (TAS2R09), T2R10 (TAS2R10), T2R13 (TAS2R13), T2R14 (TAS2R14), T2R16 (TAS2R16), T2R54 (TAS2R39, T2R61 (TAS2R43), T2R63 (TA2R20), T2R64 (TAS2R31), T2R65 (TAS2R19), T2R67 (TAS2R50), T2R71 (TAS2R41), and T2R75 (TAS2R46). The corresponding IUPHAR nomenclature for each receptor is given in parenthesis. In Table 2, these receptors are identified by the last two digits. For example, T2R01 is indicated as 01. Table 2 reports the percentage block of cellular response over baseline at an unsaturated fatty acid concentration of 200 µM.

T2R07 (TAS2R07) = molecular target: T2, T2R07 (TAS2R07) (Homo sapiens, UniProt Q9NYW3); assay: FLIPR calcium assay, block of bitter agonist response, T2R07; settings: unsaturated fatty acid concentration of 200 µM, cells stimulated with known bitter agonist
T2 construct: expressed in transfected cells; host or cells: cells expressing a promiscuous G protein (e.g., G16g44)
T2 sequence (Q9NYW3 1-318): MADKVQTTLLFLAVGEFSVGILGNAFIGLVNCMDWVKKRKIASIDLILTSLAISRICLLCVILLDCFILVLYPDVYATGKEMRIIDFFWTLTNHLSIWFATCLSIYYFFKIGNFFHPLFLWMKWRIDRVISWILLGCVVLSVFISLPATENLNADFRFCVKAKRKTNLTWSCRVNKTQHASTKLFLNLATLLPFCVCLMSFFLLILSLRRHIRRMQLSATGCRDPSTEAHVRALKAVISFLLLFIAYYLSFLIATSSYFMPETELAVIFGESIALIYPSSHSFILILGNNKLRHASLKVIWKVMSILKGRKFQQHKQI
Protocol: as §1
(§3) The above protocol was carried out using 16 different unsaturated fatty acids. A particular T2R receptor was identified as being antagonized by a particular unsaturated fatty acid if it triggered a >25% block of agonist's cellular response at 200 μM concentration of unsaturated fatty acid. […] Table 2 indicates the sixteen (16) compounds tested by their compound number from Table 1 above. The 18 bitter taste receptors screened are the human bitter taste receptors we named. […]

T2R10 (TAS2R10) = molecular target: T3, T2R10 (TAS2R10) (Homo sapiens, UniProt Q9NYW0); assay: FLIPR calcium assay, block of bitter agonist response, T2R10; settings: unsaturated fatty acid concentration of 200 µM, cells stimulated with known bitter agonist, read-out: percentage block of cellular response over baseline, 10
T3 construct: expressed in transfected cells; host or cells: cells expressing a promiscuous G protein (e.g., G16g44)
T3 sequence (Q9NYW0 1-307): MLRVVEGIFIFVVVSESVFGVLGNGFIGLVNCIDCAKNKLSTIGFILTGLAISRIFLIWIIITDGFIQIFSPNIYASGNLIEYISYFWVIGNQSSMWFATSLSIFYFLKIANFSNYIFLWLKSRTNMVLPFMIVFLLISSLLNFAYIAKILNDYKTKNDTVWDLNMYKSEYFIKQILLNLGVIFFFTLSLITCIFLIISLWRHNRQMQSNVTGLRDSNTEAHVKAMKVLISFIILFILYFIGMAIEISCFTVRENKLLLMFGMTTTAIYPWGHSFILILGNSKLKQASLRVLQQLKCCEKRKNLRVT
Protocol: as §1, §2

T2R64 (TAS2R31) = molecular target: T4, T2R64 (TAS2R31) (Homo sapiens, UniProt P59538); assay: FLIPR calcium assay, block of bitter agonist response, T2R64; settings: unsaturated fatty acid concentration of 200 µM, cells stimulated with known bitter agonist
T4 construct: expressed in transfected cells; host or cells: cells expressing a promiscuous G protein (e.g., G16g44)
T4 sequence (P59538 1-309): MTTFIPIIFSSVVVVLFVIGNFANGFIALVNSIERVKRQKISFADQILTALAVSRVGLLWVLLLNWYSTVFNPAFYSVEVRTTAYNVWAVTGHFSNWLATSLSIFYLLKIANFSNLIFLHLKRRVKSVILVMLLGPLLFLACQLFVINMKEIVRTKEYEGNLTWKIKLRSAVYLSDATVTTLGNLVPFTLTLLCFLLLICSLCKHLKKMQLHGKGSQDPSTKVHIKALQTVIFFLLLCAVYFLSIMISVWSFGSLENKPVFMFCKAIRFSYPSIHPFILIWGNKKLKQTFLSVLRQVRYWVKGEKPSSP
Protocol: as §1, §3

T2R71 (TAS2R41) = molecular target: T5, T2R71 (TAS2R41) (Homo sapiens, UniProt P59536); assay: FLIPR calcium assay, block of bitter agonist response, T2R71; settings: unsaturated fatty acid concentration of 200 µM, cells stimulated with known bitter agonist
T5 construct: expressed in transfected cells; host or cells: cells expressing a promiscuous G protein (e.g., G16g44)
T5 sequence (P59536 1-307): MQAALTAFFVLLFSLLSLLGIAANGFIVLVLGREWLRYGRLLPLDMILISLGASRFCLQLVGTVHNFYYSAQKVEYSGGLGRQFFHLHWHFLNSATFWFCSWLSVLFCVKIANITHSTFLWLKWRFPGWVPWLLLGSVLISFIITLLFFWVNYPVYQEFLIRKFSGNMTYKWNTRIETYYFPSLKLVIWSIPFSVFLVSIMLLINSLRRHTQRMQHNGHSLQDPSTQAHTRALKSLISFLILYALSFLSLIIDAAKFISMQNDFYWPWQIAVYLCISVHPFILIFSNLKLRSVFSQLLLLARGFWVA
Protocol: as §1, §3

Question: CC(C)=CCC/C(C)=C/C(=O)O [Compound 129] was tested. Which inhibition at 200 µM (T2R01 (TAS2R01)) did it give?
Answer: Its inhibition at 200 µM is 40%.

Question: And the “percentage block of cellular response over baseline, 07” value (T2R07 (TAS2R07))?
Answer: The value was >90%.

Question: What about the inhibition at 200 µM (T2R10 (TAS2R10)) of the same molecule?
Answer: Its inhibition at 200 µM is > 65%.

Question: And the “percentage block of cellular response over baseline, 64” value (T2R64 (TAS2R31))?
Answer: The value was >85%.

Question: And the “percentage block of cellular response over baseline, 71” value (T2R71 (TAS2R41))?
Answer: Its value is 30%.
